Experimental data as given in ChEMBL document CHEMBL4806958, “Anti-cancer/anti-fibrosis compounds” (2020).
Calls of active or inactive are those of the source. The calls are words filed in the database; no cut-off is given here.

Columns and labels:
[1] = Cytotoxicity against human A549-Brm3 cells assessed as reduction in cell viability measured after 7 days by Celltiter-glo luminescent cell viability assay; assay type: functional, cell-based; settings: A549-BrM3, 168 h
[2] = Toxicity in Ncr nu/nu mouse xenografted with human MV-4-11 cells assessed as effect on body weight at 50 mg/kg, po administered twice a day for 21 days and measured for every 3 days; assay type: organism-based; settings: in vivo, 504 h, time 21 day
[3] = biological target: Homeodomain-interacting protein kinase 2 (Homo sapiens, UniProt Q9H2X6); test: Inhibition of HIPK2 (unknown origin) using Ser/Thr 09 as substrate incubated for 60 mins in presence of ATP by Z'-Lyte assay
[4] = Cytotoxicity against human TG-1 cells assessed as reduction in cell viability measured after 7 days by Celltiter-glo luminescent cell viability assay; assay type: functional, cell-based; settings: TG1, 168 h
A549 = test: Cytotoxicity against human A549 cells assessed as reduction in cell viability measured after 7 days by Celltiter-glo luminescent cell viability assay; assay type: functional, cell-based; settings: A549, 168 h
RS4-11 = test: Cytotoxicity against human RS4-11 cells assessed as reduction in cell viability measured after 7 days by Celltiter-glo luminescent cell viability assay; assay type: functional, cell-based; settings: RS4-11, 168 h
[5] = Toxicity in athymic nude mouse xenografted with human MOLM-14 cells assessed as effect on body weight at 50 mg/kg, po administered twice a day with 5 days on and 2 days off dosing schedule for 21 days and measured for every other day; assay type: organism-based; settings: in vivo, 504 h, time 3 weeks
MV4-11 [6] = test: Down regulation of phosphorylated-STAT5 level in human MV-4-11 cells after 24 hrs by Western blotting analysis; assay type: functional, cell-based; settings: dose 0.03-10 µM
MOLM-14 [7] = test: Down regulation of phosphorylated-STAT1 level in mouse xenografted with human MOLM-14 cells at 50 mg/kg, po administered twice a day for 21 days by Western blotting analysis; assay type: functional, organism-based; settings: time 21.0 day
MCF7 = test: Cytotoxicity against human MCF7 cells assessed as reduction in cell viability and measured after 7 days by Celltiter-glo luminescent cell viability assay; assay type: functional, cell-based; settings: MCF7, 168 h
[8] = Cytotoxicity against human H2030-Brm3 cells assessed as reduction in cell viability measured after 7 days by Celltiter-glo luminescent cell viability assay; assay type: functional, cell-based; settings: H2030-BrM3, 168 h
MV4-11 [9] = test: Down regulation of phosphorylated-STAT1 level in human MV-4-11 cells after 48 hrs by Western blotting analysis; assay type: functional, cell-based; settings: dose 0.03-3 µM
SET-2 = test: Cytotoxicity against human SET2 cells assessed as reduction in cell viability measured after 7 days by Celltiter-glo luminescent cell viability assay; assay type: functional, cell-based; settings: SET-2, 168 h
MOLM-14 [10] = test: Down regulation of phosphorylated-STAT1 level in mouse xenografted with human MOLM-14 cells by Western blotting analysis; assay type: functional, cell-based; settings: dose 10-100 mg/kg
MOLM-14 [11] = test: Cytotoxicity against human MOLM-14 cells assessed as reduction in cell viability measured after 7 days by Celltiter-glo luminescent cell viability assay; assay type: functional, cell-based; settings: MOLM-14, 168 h
MOLM-14 [12] = test: Down regulation of phosphorylated-STAT3 level in human MOLM-14 cells at 0.03 to 3 uM after 24 hrs by Western blotting analysis; assay type: functional, cell-based; settings: dose 0.03-3 µM
MV4-11 [13] = test: Down regulation of C-MYC level in human MV-4-11 cells at 0.03 to 3 uM after 48 hrs by Western blotting analysis; assay type: functional, cell-based; settings: dose 0.03-3 µM
MOLM-14 [14] = test: Down regulation of phosphorylated-STAT5 level in human MOLM-14 cells at 0.03 to 3 uM after 24 hrs by Western blotting analysis; assay type: functional, cell-based; settings: dose 0.03-3 µM
MV4-11 [15] = test: Down regulation of CYR61 level in human MV-4-11 cells at 0.03 to 3 uM after 48 hrs by Western blotting analysis; assay type: functional, cell-based; settings: dose 0.03-3 µM
NCI-H2052 = test: Cytotoxicity against human H2052 cells assessed as reduction in cell viability and measured after 7 days by Celltiter-glo luminescent cell viability assay; assay type: functional, cell-based; settings: NCI-H2052, 168 h
MOLM-14 [16] = test: Down regulation of phosphorylated-STAT3 level in human MOLM-14 cells at 0.03 to 3 uM after 48 hrs by Western blotting analysis; assay type: functional, cell-based; settings: dose 0.03-3 µM
MV4-11 [17] = test: Cytotoxicity against human MV-4-11 cells assessed as reduction in cell viability measured after 7 days by Celltiter-glo luminescent cell viability assay; assay type: functional, cell-based; settings: MV4-11, 168 h
COLO 205 = test: Cytotoxicity against human COLO-205 cells assessed as reduction in cell viability measured after 7 days by Celltiter-glo luminescent cell viability assay; assay type: functional, cell-based; settings: COLO 205, 168 h
[18] = biological target: Casein kinase II subunit alpha (Homo sapiens, UniProt P68400); test: Inhibition of CSNK2A1(unknown origin) using Ser/Thr 11 as substrate incubated for 60 mins in presence of ATP by Z'-LYTE assay
MOLM-14 [19] = test: Down regulation of phosphorylated-STAT5 level in mouse xenografted with human MOLM-14 cells at 50 mg/kg, po administered twice a day for 21 days by Western blotting analysis; assay type: functional, organism-based; settings: time 21.0 day
MSTO-211H = test: Cytotoxicity against human MSTO-211H cells assessed as reduction in cell viability and measured after 7 days by Celltiter-glo luminescent cell viability assay; assay type: functional, cell-based; settings: 168 h
MV4-11 [20] = test: Down regulation of phosphorylated-STAT3 level in human MV-4-11 cells after 24 hrs by Western blotting analysis; assay type: functional, cell-based; settings: dose 0.03-10 µM
MOLM-14 [21] = test: Antitumor activity against human MOLM-14 cells xenografted in athymic nude mouse assessed as tumor growth inhibition at 50 mg/kg, po administered twice a day with 5 days on and 2 days off dosing schedule for 3 weeks and measured every other day; assay type: functional, organism-based
A204 = test: Cytotoxicity against human A204 cells assessed as reduction in cell viability and measured after 7 days by Celltiter-glo luminescent cell viability assay; assay type: functional, cell-based; settings: A204, 168 h
MOLM-14 [22] = test: Down regulation of phosphorylated-STAT5 level in human MOLM-14 cells at 0.03 to 3 uM after 48 hrs by Western blotting analysis; assay type: functional, cell-based; settings: dose 0.03-3 µM
BT-474 = test: Cytotoxicity against human BT474 cells assessed as reduction in cell viability and measured after 7 days by Celltiter-glo luminescent cell viability assay; assay type: functional, cell-based; settings: BT-474, 168 h
SW-620 [23] = test: Cytotoxicity against human SW620 cells assessed as reduction in cell viability measured after 7 days by Celltiter-glo luminescent cell viability assay; assay type: functional, cell-based; settings: SW-620, 168 h
SW-620 [24] = test: Cytotoxicity against human SW620 cells assessed as reduction in cell viability measured after 7 days in presence of glycolysis inhibitor 2-DG by Celltiter-glo luminescent cell viability assay; assay type: functional, cell-based; settings: SW-620, 168 h
MOLM-14 [25] = test: Down regulation of phosphorylated-STAT1 level in human MOLM-14 cells at 0.03 to 3 uM after 24 hrs by Western blotting analysis; assay type: functional, cell-based; settings: dose 0.03-3 µM
MV4-11 [26] = test: Down regulation of CTGF level in human MV-4-11 cells at 0.03 to 3 uM after 48 hrs by Western blotting analysis; assay type: functional, cell-based; settings: dose 0.03-3 µM
MV4-11 [27] = test: Down regulation of phosphorylated-STAT5 level in human MV-4-11 cells after 48 hrs by Western blotting analysis; assay type: functional, cell-based; settings: dose 0.03-3 µM
[28] = Cytotoxicity against human H290 cells assessed as reduction in cell viability and measured after 7 days by Celltiter-glo luminescent cell viability assay; assay type: functional, cell-based; settings: NCI-H290, 168 h
HCT-116 = test: Cytotoxicity against human HCT-116 cells assessed as reduction in cell viability measured after 7 days by Celltiter-glo luminescent cell viability assay; assay type: functional, cell-based; settings: HCT-116, 168 h

Chain of Casein kinase II subunit alpha (P68400 whole entry): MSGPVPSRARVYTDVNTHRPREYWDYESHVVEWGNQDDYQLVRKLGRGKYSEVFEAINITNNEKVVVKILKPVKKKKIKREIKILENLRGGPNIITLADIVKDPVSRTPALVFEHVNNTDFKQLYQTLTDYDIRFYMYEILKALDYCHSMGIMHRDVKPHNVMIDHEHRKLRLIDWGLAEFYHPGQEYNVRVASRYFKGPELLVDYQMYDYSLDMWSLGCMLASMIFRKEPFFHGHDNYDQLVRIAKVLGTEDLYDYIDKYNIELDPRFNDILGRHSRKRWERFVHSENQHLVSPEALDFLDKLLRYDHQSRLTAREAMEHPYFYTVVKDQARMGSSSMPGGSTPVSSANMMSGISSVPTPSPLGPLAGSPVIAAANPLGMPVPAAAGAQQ
Chain of Homeodomain-interacting protein kinase 2 (Q9H2X6 whole entry): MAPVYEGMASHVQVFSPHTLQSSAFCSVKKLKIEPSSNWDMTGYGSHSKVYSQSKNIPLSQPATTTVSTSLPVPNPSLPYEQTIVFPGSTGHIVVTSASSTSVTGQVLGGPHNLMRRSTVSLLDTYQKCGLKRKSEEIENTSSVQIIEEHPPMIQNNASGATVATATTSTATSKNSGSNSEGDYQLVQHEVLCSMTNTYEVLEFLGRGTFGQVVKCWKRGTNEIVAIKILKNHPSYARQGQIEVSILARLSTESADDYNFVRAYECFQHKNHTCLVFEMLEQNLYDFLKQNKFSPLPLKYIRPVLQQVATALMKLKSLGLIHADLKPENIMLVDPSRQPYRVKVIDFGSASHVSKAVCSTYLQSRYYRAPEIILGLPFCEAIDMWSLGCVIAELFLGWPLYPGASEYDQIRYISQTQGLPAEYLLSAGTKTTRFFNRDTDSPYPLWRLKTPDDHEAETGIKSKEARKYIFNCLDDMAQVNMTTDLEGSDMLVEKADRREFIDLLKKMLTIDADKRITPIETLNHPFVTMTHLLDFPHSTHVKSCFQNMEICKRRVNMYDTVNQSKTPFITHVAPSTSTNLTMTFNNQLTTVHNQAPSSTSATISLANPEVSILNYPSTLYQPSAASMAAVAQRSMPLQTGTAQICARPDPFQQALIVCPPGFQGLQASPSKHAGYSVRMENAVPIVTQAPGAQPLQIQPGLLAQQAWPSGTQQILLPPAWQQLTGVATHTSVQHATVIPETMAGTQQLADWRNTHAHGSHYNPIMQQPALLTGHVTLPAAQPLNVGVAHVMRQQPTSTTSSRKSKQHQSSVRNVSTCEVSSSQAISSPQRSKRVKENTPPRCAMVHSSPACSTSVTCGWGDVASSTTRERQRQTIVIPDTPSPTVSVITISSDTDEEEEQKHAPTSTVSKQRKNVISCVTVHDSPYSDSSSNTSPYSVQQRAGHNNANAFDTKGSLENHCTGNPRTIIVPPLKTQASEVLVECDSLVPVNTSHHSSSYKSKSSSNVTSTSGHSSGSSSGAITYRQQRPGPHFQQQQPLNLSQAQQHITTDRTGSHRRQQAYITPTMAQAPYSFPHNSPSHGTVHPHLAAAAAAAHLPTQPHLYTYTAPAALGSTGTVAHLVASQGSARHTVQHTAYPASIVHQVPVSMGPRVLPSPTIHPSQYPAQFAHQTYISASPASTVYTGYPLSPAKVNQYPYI

For `Nc1nccc2c(Br)cc3cc(C(=O)[O-])ccc3c12.[Na+]`, the IC50 [1] was 1000 nM, the Activity [2] was “Non-Toxic” and the IC50 [3] was < 300 nM. The IC50 [4] was < 1000 nM, the IC50 (A549) was 1000 nM and the IC50 (RS4-11) was < 1000 nM. For the same compound, the Activity [5] was “Non-Toxic”, the Activity (MV4-11 [6]) was “Dose-Dependent Effect” and the Activity (MOLM-14 [7]) was “Active”. For the same compound, the IC50 (MCF7) was 1000 nM, the IC50 [8] was < 1000 nM and the Activity (MV4-11 [9]) was “Dose-Dependent Effect”. For the same compound, the IC50 (SET-2) was < 1000 nM, the Activity (MOLM-14 [10]) was “Dose-Dependent Effect” and the IC50 (MOLM-14 [11]) was < 1000 nM. The Activity (MOLM-14 [12]) was “Active”, the Activity (MV4-11 [13]) was “Active” and the Activity (MOLM-14 [14]) was “Active”. The Activity (MV4-11 [15]) was “Active”, the IC50 (NCI-H2052) was 1000 nM and the Activity (MOLM-14 [16]) was “Active”. The IC50 (MV4-11 [17]) was < 1000 nM, the IC50 (COLO 205) was < 1000 nM and the IC50 [18] was < 300 nM. The Activity (MOLM-14 [19]) was “Active”, the IC50 (MSTO-211H) was 1000 nM and the Activity (MV4-11 [20]) was “Dose-Dependent Effect”. For the same compound, the Activity (MOLM-14 [21]) was “Active”, the IC50 (A204) was 1000 nM and the Activity (MOLM-14 [22]) was “Active”. The IC50 (BT-474) was 1000 nM, the IC50 (SW-620 [23]) was 1000 nM and the IC50 (SW-620 [24]) was < 1000 nM. The Activity (MOLM-14 [25]) was “Active”, the Activity (MV4-11 [26]) was “Active” and the Activity (MV4-11 [27]) was “Dose-Dependent Effect”. It also gave an IC50 [28] of 1000 nM and an IC50 (HCT-116) of 1000 nM.
